Measurements taken from patent publication US7220784B2, “Substituted stilbenes and their reactions” (priority 2000, dated 2007).
“And” between values parts separate entries of the source, which are not always exact repeats. Identical values can stand only once. Like-named read-outs stand apart in the source and are kept apart here.

Assays:
[1] = test system: colchicine binding site on tubulin; test: Competition for the colchicine binding site on tubulin
[2] = Maximum tolerated dose; conditions: mouse, in vivo; mice
Excerpt: The in vitro studies reported in Table 11 illustrate the structure requirements necessary for biological activity. Modifications of the A ring have shown that the methoxy groups can be replaced by alkoxy or alkyl (28,31a,32a) whilst retaining their ability to inhibit assembly of isolated tubulin. Similarly, molecules with alkyl substituents on the ethene bridge (19,20,46) retain activity both as inhibitors of tubulin assembly and are growth inhibitory in vitro. The pharmacophore consists of a stilbene in a cis configuration with a small alkyl or O-alkyl substituent at the 4-position of the B ring. […] These agents show good activity in the shape-change (permeability) assay. This test is used as an in vitro assay of vascular damage. […] 97–64H was given at either ⅔ of the maximum tolerated dose (MTD=200 mg/kg) or at ¾ of the MTD to mice bearing liver metastatic T50:80 tumours. Tumours were removed and examined for evidence of vascular damage at 2 hr and 4 hr following drug administration. Similarly a dose equivalent to ¾ of the MTD was administered and the tumours examined 24 hr and 48 hr following administration of drug. […] These effects are seen within 2 hours.

[3] = test system: liver metastatic T50:80 tumours; test: Anti-vascular effects, histological examination of T50:80 tumours; assay type: in vivo, mice
Protocol: (§1) (2) Competition for the colchicine binding site on tubulin. The figure quoted represents the % of ^3H-colchicine bound following co-incubation of test compound and ^3H-cochicine with isolated tubulin. Where ester pro-drugs were used the experiments were carried out in the presence and absence of porcine liver esterase. • (3) Cytotoxicity/growth inhibition assay. This was carried out by the MTT assay. • (4) Permeability (shape-change) assay in endothelial cells. This was carried out using a method based on that of Watts et al. (Anticancer Res., 17, 71–75, (1997)). This involved the diffusion of a fluorescently labelled dextran through a barrier of endothelial cells (HUVEC) grown to confluence on a porous membrane. […] The anti-vascular effects of the agents were monitored by either positron emission tomography (PET) or by histologogical examination following treatment of mice bearing T50:80 murine breast tumours, or H460 human lung tumours. • (6) Anti-tumour efficacy of agents was determined in xenografts of H460 human lung cancer. Animals (n=5) were trated either with 5 daily injections and tumour size measured with time following treatment. • (7) The pharmacokinetic profile of agents was determined in mice following injection with drug. Blood was taken at various times following treatment and analysed by HPLC with UV detection. […]

[4] = test system: H460 human lung cancer xenografts; test: Anti-tumour efficacy in xenografts of H460 human lung cancer; assay type: in vivo, mice; conditions: H460 human lung cancer xenograft
Protocol: as §1

[5] = test system: K562; test: IC50 of aliquots after ex situ irradiation in a photochemical reactor; conditions: Homo sapiens, K562, light or radiation study, read-out: IC50 (K562) (nM)

Compound	Colchicine % Inhibition [1]	MTD [2] [mg/kg]	examination of tumours for vascular damage ([3]; 2/3 or 3/4 of MTD, 2 hr, 4 hr, 24 hr, 48 hr after administration)	time by which vascular effects are seen ([3]; mouse, in vivo) [h]	anti-tumour activity in vivo [4]	IC50 ([5]; 0 h) [nM]	IC50 ([5]; 0.5 min) [nM]	IC50 ([5]; 1 min) [nM]	IC50 ([5]; 0.025 h) [nM]	IC50 ([5]; 2 min) [nM]	IC50 ([5]; 0.05 h) [nM]	IC50 ([5]; 4 min) [nM]	IC50 ([5]; 5 min) [nM]	IC50 ([5]; 0.125 h) [nM]	IC50 ([5]; 10 min) [nM]	IC50 ([5]; 12.5 min) [nM]	IC50 ([5]; 0.25 h) [nM]	IC50 ([5]; 17.5 min) [nM]	IC50 ([5]; 20 min) [nM]
COc1ccc(C=Cc2cc(OC)c(OC)c(OC)c2)cc1F [Compound 97-64H]	79% and 70%	200	tumour necrosis, blocked vessels, infiltration with red blood cells	≤ 2	shows anti-tumour activity in vivo														
COc1ccc(/C=C/c2cc(OC)c(OC)c(OC)c2)cc1O [trans-CA-4, trans-combretastatin A-4]						4000	310	530	50	20	12	9	10	3	6	4	1	3	2
